Residues, ends and D or L forms follow the SMILES beside them.

These results are taken from US9341616B2, “Sweet taste receptor chimeric proteins and use thereof” (AJINOMOTO CO., INC., priority 2014, dated 2016).

This assay concerns the target h-mT1R2-471/T1R3mosaicA (UniProt Q8TE23+Q925D8, A12W/A31M/A537S/A558R/A564V/A568V/A570T/A588V/A645S/A649T/A658V/A698V/A702T/A782V/A793V/A807V/C582S/C678S/D480N/E16H/E530V/E534N/E542M/E548N/E725V/F14L/F29L/F525Y/F541I/F612A/F622V/F665L/F695L/G696N/G701T/H484Y/H528R/H728R/I36V/I481V/I486P/I490V/I510L/I518V/I595M/I60P/I617V/I643V/I645L/I692L/I695G/I706V/I740A/I803L/K30R/K476T/K504M/K555R/K565R/K626T/K714N/K818R/K827G/L17P/L471T/L521P/L560F/L571I/L578I/L610P/L631F/L636F/L639V/L684P/L688V/L702I/L734M/L735F/L800F/L823M/L825Q/M19T/M492I/M616G/M644L/M682V/M690V/M744T/M748V/N477Y/N52R/N540G/N541S/N547G/N58S/N63T/N675D/N721H/P545F/P561R/P564S/P61V/P638T/P824S/Q32K/Q472E/Q474R/Q479S/Q536L/Q53S/Q546K/Q550E/Q555R/Q56R/Q611L/Q676H/Q757R/Q795R/Q831P/R473T/R498S/R632Q/R667S/S22P/S45E/S501P/S547N/S550A/S576L/S595F/S610P/S628F/S635P/S637R/S663R/S670G/S679G/S681F/S703N/S717H/S727G/S784D/S804G/T46A/T50G/T529S/T542A/T549I/T609V/T629S/T642S/T663I/T694M/T705I/T706G/T716I/T813A/V508I/V512P/V557A/V573A/V584A/V585L/V613L/V617M/V673M/V687A/V691A/V694A/V718L/V718M/V723A/V729T/V738A/V741L/V774I/V791M/V805L/V812A/V821L/W599R/W676R/W824R/Y533F/Y615F/Y671F/Y680C/Y769S/Y783H/Y794L). The following applies: Table 4; genes h-mT471/T3mA (h-mT1R2-471, T1R3mA); HEK293E cells. How it is done: The HEK293E cells maintained by using the DMEM/Ham's F-12 medium (Nakarai Tesque) containing 10% fetal bovine serum ([…]) and 1% Pen Strep (GIBCO) were washed with D-PBS(−) (Nakarai Tesque), and collected from the flask by using 0.25% Trypsin EDTA (GIBCO). The cells were centrifuged (1,200 rpm, 3 minutes), and after the supernatant was removed, suspended in 5% FBS DMEM/Ham's F-12 at a density of 0.75×10^7 cell/ml. This suspension (10 ml) was put into a […] (IWAKI), and culture was performed overnight (37° C., 5% CO2). On the next day, the medium was exchanged with Opti-MEM (30 ml, Invitrogen, Life Technologies), a sweet taste receptor gene mixture (Gα15-trans48LD gene, various kinds of T1R2 chimeric genes, and various kinds of T1R3 chimeric genes, 63.8 μg in total) prepared by using Opti-MEM and Lipofectamin 2000 (Invitrogen, Life Technologies) was slowly added to the cell suspension, and incubation was performed (37° C., 5% CO2) for 6 hours to attain gene transfer.
After the gene transfer, the cells were washed with D-PBS(−), then removed from the flask by using 0.25% Trypsin EDTA (GIBCO), and collected. After the cell number was counted, the cells were suspended in the 5% FBS DMEM medium (2.78 mM glucose, GIBCO) at a density of 0.5×10^6 cell/ml. This cell suspension was put into wells of D-Lysine coat 96-well plate (BD bioscience) in such a volume that the cell count is 7.0×10^4 cells/well, and the cells were cultured overnight.
After the culture, all the medium of the 96 wells were discarded. 200 μl of the staining solution for measurement of intracellular calcium ion′ Calcium Assay Kit Express (Molecular Device), diluted 80 times with an assay buffer (20 mM HEPES, 146 mM NaCl, 1 mM MgSO4, 1.39 mM glucose, 1 mM CaC12, 2.5 mM Probenecid, 0.05% bovine serum albumin) was added to each well, and the plate was left standing at 37° C. for 30 minutes and at room temperature for 45 minutes to perform staining. After the staining, 50 μl of a solution of stimulant (sweet taste substance) prepared with the assay buffer was added to each well, and the fluorescence value was measured for 120 seconds after the stimulation by using FDSSμEELL (Hamamatsu Photonics). By measuring the fluorescence value (Ex. 480 nm, Em. 540 nm) before and after the stimulation, the change of the intracellular free calcium ion concentration caused by addition of the stimulant via a sweet taste receptor was quantitatively investigated. The measurement and analysis of the fluorescence value was performed by using the software attached to FDSSμEELL (FDSS7000EX), and ΔF/F value was calculated in accordance with the following equation, and used for the evaluation. ΔF/F=(Maximum fluorescence value after stimulation−Minimum fluorescence value after stimulation)/(Fluorescence value before stimulation)
Furthermore, by using the ΔF/F values obtained when each sweet taste substance was added, the S/N ratio was calculated. Specifically, the S/N value was calculated by using the minimum value of ΔF/F obtained when each substance was added at various concentrations as noise (N) value, and the similarly obtained maximum value of ΔF/F as the signal (S) value, and used as an index for sensitivity of the measurement of the activity of each receptor. That is, a higher S/N value means a higher sensitivity for detection of an interaction of a sweet taste receptor and a test substance, which makes it easier to detect stimulation with a sweet taste substance or sweet taste-regulating substance of a lower concentration.
The sweet taste substances used as the stimulating substance are acesulfame potassium (Tokyo Kasei Kogyo), sodium saccharin (WAKO), sucralose (SIGMA), sucrose (WAKO), and neotame (SIGMA), as well as aspartame, advantame, and SC-45647 ([3-[(S)-1-phenylethyl]-2-(4-cyanophenyl)guanidino]acetic acid, which were all synthesized in-house.

Chain of h-mT1R2-471/T1R3mosaicA (Q8TE23 with tags, fused parts or gaps with the stated changes limits assumed): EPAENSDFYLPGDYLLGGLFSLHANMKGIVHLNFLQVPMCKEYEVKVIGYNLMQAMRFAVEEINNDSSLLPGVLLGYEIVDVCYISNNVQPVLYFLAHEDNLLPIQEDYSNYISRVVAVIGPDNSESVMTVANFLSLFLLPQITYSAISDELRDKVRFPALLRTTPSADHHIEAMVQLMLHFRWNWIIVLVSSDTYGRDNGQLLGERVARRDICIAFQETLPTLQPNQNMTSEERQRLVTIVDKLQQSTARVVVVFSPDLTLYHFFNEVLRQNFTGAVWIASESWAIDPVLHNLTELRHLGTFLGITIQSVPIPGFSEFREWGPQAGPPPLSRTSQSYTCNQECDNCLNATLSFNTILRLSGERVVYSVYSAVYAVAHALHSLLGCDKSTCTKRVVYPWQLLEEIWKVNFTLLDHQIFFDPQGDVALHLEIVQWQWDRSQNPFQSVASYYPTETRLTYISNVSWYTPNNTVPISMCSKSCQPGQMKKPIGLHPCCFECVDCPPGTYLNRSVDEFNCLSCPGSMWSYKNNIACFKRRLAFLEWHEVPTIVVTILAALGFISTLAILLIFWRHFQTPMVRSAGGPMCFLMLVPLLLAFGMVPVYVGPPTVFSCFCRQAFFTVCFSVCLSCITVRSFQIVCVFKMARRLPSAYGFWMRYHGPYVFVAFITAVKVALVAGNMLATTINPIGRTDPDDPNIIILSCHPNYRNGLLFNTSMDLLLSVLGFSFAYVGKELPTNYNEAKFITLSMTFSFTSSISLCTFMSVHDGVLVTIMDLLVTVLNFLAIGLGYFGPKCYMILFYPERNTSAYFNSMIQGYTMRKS
Chain of h-mT1R2-471/T1R3mosaicA (Q925D8 with tags, fused parts or gaps with the stated changes limits assumed): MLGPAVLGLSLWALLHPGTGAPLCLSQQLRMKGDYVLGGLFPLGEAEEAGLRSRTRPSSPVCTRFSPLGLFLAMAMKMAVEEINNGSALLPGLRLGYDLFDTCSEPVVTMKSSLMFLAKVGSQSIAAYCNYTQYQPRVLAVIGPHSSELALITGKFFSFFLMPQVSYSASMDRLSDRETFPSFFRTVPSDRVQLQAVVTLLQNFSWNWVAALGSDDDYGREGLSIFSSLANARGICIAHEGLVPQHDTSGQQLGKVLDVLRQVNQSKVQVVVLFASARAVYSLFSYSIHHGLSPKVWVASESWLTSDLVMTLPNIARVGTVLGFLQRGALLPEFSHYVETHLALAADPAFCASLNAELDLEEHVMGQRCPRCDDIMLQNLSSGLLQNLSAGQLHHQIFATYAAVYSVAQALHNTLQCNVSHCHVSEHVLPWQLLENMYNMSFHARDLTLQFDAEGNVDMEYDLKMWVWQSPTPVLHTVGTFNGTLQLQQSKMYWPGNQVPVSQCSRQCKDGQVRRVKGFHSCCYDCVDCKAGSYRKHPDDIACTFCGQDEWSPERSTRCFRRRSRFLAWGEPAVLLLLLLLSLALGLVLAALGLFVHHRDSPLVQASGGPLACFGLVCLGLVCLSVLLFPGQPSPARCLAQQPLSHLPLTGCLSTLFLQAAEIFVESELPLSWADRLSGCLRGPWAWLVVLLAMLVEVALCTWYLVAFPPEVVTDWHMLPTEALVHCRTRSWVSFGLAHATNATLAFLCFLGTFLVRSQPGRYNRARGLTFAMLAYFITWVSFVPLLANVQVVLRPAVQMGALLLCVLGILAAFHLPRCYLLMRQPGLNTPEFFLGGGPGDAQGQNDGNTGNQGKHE

`CC1=CC(=O)NS(=O)(=O)O1` [Acesulfame K, acesulfame potassium] showed a S/N of 4.3.

With `COC(=O)[C@H](Cc1ccccc1)NC(=O)[C@H](CC(=O)O)NCCCc1ccc(OC)c(O)c1` [Advantame, advantame], the S/N is on record as 10.0.

As for `COC(=O)[C@H](Cc1ccccc1)NC(=O)[C@@H](N)CC(=O)O` [Aspartame, aspartame] (HELM PEPTIDE1{D.F.[CO[*:1]]}$$$$V2.0), the S/N was 7.9.

`COC(=O)[C@H](Cc1ccccc1)NC(=O)[C@H](CC(=O)O)NCCC(C)(C)C` [Neotame, neotame] yielded a S/N of 8.3.

`C[C@H](NC(=Nc1ccc(C#N)cc1)NCC(=O)O)c1ccccc1` [SC-45647, [3-[(S)-1-phenylethyl]-2-(4-cyanophenyl)guanidino]acetic acid] came in with a S/N of 6.5.

Compound `O=C1NS(=O)(=O)c2ccccc21.[Na]` [Saccharin Na, sodium saccharin] came in with a S/N of 3.9.

In turn, `OC[C@H]1O[C@H](O[C@]2(CCl)O[C@H](CCl)[C@@H](O)[C@@H]2O)[C@H](O)[C@@H](O)[C@H]1Cl` [Sucralose, sucralose] had a S/N of 7.1.

Take `OC[C@H]1O[C@@](CO)(O[C@H]2O[C@H](CO)[C@@H](O)[C@H](O)[C@H]2O)[C@@H](O)[C@@H]1O` [Sucrose, sucrose]: the S/N was 3.5.
